# From article PMC12376128, “In vitro and In Vivo Drug Metabolism Analysis of BPI-460372 - A Covalent TEAD1/3/4 Inhibitor” (Current Drug Metabolism, 2025)
# What was measured:
# dog hepatocytes = experiment: Metabolism and metabolite formation in hepatocytes; type: in vitro ADME, beagle dog; conditions: beagle dog hepatocytes, 10 µM BPI-460372, 4 h incubation
# Description: All the samples were duplicates.
# recombinant human CYP3A4 = target: T1, recombinant human CYP3A4 (Homo sapiens, UniProt P08684); experiment: Metabolic stability in recombinant human CYP isoenzymes; type: in vitro ADME; conditions: rCYP3A4 100 pmol P450/mL, 1 µM
# T1 construct: purchased Cypex Ltd. (Dundee, UK)
# T1 sequence (P08684 whole entry): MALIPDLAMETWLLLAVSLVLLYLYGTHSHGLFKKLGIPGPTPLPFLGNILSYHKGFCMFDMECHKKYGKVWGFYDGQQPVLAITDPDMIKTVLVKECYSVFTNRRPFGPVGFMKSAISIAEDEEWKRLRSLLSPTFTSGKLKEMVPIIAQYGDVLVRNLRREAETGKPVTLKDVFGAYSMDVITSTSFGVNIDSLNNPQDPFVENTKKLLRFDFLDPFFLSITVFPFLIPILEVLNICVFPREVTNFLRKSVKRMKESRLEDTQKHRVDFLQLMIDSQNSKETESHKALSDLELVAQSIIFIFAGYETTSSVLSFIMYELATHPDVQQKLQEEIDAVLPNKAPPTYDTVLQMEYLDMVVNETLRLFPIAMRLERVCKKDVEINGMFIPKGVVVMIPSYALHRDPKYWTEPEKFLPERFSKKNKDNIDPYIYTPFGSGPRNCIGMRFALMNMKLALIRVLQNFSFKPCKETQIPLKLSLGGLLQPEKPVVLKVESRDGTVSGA
# Description: (§1) To identify the specific isoform that participates in the metabolism of BPI-460372, 1 µM BPI-460372 or positive control substrates were mixed with recombinant human CYP1A2, 2B6, 2C8, 2C9, 2C19, 2D6 or 3A4 (100 pmol P450·mL^-1), and the reaction was started by the addition of NADPH (1 mM final concentration) after 5-minute preincubation at 37°C. Aliquots were maintained in acetonitrile containing IS at different time points at 0 min, 5 min, 10 min, 20 min, 30 min, and 60 min. All incubations were performed in triplicate, and the concentration of the supernatant was determined by LC-MS/MS.
# (§2) A substrate depletion approach was employed to determine the intrinsic clearance (CLint (rCYPj)) for each isoform. The contribution of each isoform was estimated using equations 2 and 3. CYPj abundance was evaluated as the abundance (CYPj) of each isoform in HLMs (pmol/mg protein).
# recombinant human CYP2C8 = target: T2, recombinant human CYP2C8 (Homo sapiens, UniProt P10632); experiment: as above; type: in vitro ADME; conditions: rCYP2C8 100 pmol P450/mL, 1 µM
# T2 construct: purchased Cypex Ltd. (Dundee, UK)
# T2 sequence (P10632 1-490): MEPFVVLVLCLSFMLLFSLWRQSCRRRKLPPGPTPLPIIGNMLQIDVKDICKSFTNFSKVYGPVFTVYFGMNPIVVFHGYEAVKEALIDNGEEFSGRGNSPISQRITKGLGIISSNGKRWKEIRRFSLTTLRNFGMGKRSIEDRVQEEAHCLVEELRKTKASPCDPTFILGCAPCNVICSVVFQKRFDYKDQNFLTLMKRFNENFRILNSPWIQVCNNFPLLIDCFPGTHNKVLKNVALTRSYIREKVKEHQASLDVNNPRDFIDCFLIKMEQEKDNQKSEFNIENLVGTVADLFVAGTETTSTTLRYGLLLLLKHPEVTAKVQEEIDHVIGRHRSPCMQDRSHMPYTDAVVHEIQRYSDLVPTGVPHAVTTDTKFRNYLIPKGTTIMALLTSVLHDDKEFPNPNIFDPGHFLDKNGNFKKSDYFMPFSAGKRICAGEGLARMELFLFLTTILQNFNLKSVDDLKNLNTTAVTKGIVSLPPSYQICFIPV
# Description: as §1, §2
# CYP2D6 = CYP2D6 (Homo sapiens, UniProt P10635); experiment: Metabolic stability in HLMs with or without specific CYP inhibitor (quinidine); type: in vitro ADME; parameters: HLMs (1 mg protein·mL^-1); tissue BioIVT; host or cells: pooled human liver microsomes; conditions: HLMs 1 mg protein/mL, substrate 1 μM, quinidine 20 µM
# CYP2D6, sequence (P10635 whole entry): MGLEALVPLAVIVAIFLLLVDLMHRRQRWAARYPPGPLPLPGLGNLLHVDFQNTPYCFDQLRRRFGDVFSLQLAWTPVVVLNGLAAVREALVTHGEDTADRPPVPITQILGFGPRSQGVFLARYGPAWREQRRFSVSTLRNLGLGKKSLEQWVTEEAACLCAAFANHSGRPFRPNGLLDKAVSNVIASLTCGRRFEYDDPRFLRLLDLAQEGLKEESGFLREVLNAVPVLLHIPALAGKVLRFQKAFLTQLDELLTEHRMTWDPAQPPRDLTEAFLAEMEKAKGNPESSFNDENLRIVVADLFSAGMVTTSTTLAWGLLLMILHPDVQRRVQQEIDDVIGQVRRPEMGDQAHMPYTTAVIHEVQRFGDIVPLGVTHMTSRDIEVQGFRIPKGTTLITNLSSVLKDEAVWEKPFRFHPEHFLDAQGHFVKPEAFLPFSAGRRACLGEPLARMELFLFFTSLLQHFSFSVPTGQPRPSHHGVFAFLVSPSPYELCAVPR
# Description: (§3) Before starting the experiments, the HLMs were thawed gently on ice. Metabolic stability incubations were performed at 37 °C. The incubations contained 100 mM phosphate buffer saline (PBS, pH 7.4), HLMs (1 mg protein·mL^-1), dimethyl sulfoxide (DMSO, blank control) or a selective CYP inhibitor, and BPI-460372 or positive control substrates (final incubation concentration, 1 μM). The incubation process started with the addition of NADPH (1 mM final concentration) after a 5-minute preincubation period. The chemical inhibitors were as follows: a-naphthoflavone (2 µM) for CYP1A2, ticlopidine (20 µM) for 2B6, quercetin (20 µM) for CYP2C8, sulfaphenazole (20 µM) for CYP2C9, ticlopidine (200 µM) for CYP2C19, quinidine (20 µM) for CYP2D6, and ketoconazole (20 µM) for CYP3A [9]. Aliquots were maintained in acetonitrile containing internal standard (IS) at various time points, such as 0 min, 5 min, 10 min, 20 min, 30 min, and 60 min. All incubations were performed in triplicate, and the concentration in the supernatant was determined by liquid chromatography-tandem mass spectrometry (LC-MS/MS).
# (§4) The elimination rate constant k (min^-1) was obtained by linear regression from the natural logarithm of the […] of the parent drug and the incubation time. The inhibition rate was calculated using equation 1 [10]: […]
# CYP2B6 = target: T3, CYP2B6 (Homo sapiens, UniProt P20813); experiment: Metabolic stability in HLMs with or without specific CYP inhibitor (ticlopidine 20 µM); type: in vitro ADME; conditions: HLMs 1 mg protein/mL, substrate 1 μM
# T3 construct: HLMs (1 mg protein·mL^-1); tissue BioIVT; host or cells: pooled human liver microsomes
# T3 sequence (P20813 1-491): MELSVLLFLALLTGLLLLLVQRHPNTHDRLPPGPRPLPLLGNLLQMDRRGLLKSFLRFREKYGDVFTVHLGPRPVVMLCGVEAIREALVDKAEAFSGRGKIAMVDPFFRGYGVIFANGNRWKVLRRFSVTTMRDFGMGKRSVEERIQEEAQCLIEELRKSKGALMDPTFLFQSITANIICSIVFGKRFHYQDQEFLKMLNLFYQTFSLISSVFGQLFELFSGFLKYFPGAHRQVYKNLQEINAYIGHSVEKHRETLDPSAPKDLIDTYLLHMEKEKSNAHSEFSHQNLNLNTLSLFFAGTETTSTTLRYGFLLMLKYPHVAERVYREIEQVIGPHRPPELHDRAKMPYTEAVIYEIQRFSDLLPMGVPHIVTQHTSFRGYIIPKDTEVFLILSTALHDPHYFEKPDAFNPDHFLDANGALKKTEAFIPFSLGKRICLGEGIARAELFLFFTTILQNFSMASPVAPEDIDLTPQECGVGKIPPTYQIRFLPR
# Description: as §3, with “The incubations contained 100 mM phosphate buffer saline (PBS, pH 7.4), HLMs (1 mg protein·mL^-1), dimethyl sulfoxide (DMSO, blank control) or a selective CYP inhibitor, and BPI-460372 or positive control substrates (final incubation concentration, 1 μM).” left out
# as §4
# CYP2C19 = experiment: Metabolic stability in HLMs with or without specific CYP inhibitor (ticlopidine 200 µM); type: in vitro ADME, human; conditions: HLMs 1 mg protein/mL, substrate 1 μM
# Description: as §3, with “The incubations contained 100 mM phosphate buffer saline (PBS, pH 7.4), HLMs (1 mg protein·mL^-1), dimethyl sulfoxide (DMSO, blank control) or a selective CYP inhibitor, and BPI-460372 or positive control substrates (final incubation concentration, 1 μM).” left out
# as §4
# Stability in plasma [1] = type: in vitro ADME; conditions: monkey plasma, 37°C, 4 h
# Stability in plasma [2] = type: in vitro ADME; conditions: human plasma, 37°C, 4 h
# Stability in plasma [3] = type: in vitro ADME; conditions: mouse plasma, 37°C, 4 h
smiles,measurement,setting,value
C=C(F)C(=O)N1CC(n2c(=O)n(-c3ccc(C(F)(F)F)cc3)c3nccnc32)C1 [BPI-460372],UV (314 nm) Peak Areas Relative Abundance,dog hepatocytes,48.28%
same,Contribution,recombinant human CYP3A4,28.3%
same,Contribution,recombinant human CYP2C8,8.8%
same,Inhibition Rate,CYP2D6,17.0%
same,Inhibition Rate,CYP2B6,-11.5%
same,Inhibition Rate,CYP2C19,-4.2%
same,Stability in plasma,Stability in plasma [1],stable
same,Stability in plasma,Stability in plasma [2],stable
same,Stability in plasma,Stability in plasma [3],stable
